The subject of data set [1] is KG1α cells. In words: Apoptosis or cell necrosis in KG1α cells, FACS (Annexin-V/PI) and western blot. Format: cell-based, human. The following applies: 0-2 μM, 24 hours, FIG. 2. As to the method: (§1) Cell death was typically known as apoptosis or cell necrosis. Thus, in order to confirm whether the death of acute leukemia cells induced by the compound 1 of the present invention was due to apoptosis or cell necrosis, fluorescence activated cell sorting (FACS) and western blot were performed.
(§2) First, in order to conduct FACS, KG1α cells or HL60 cells cultured in […] were inoculated in a 6-well plate at 1×10^7 cells/well, and for the stabilization of cells, the cells were cultured in an incubator at 37° C. and 5% CO2 for 16 hours or more. Subsequently, the compound 1 was treated at concentrations of 0, 0.1, 0.5, 1 and 2 μM, respectively, and cultured for 24 hours, and then the cells were recovered and washed with cold PBS. Only 1×10^6 cells were taken and resuspended with PBS, and then stained with Annexin-V (green fluorescence), which increases during apoptosis, and Pi (propidium iodide, red fluorescence), which […]. The degree of the two indicators were quantified by FACS, the FACS results for KG1α cells are shown in FIG. 2A, and the FACS results for HL60 cells are shown in FIG. 3A.
(§3) Next, in order to perform western blot, KG1α cells or HL60 cells cultured in Example 2-1 were inoculated into a 6-well plate at 1×10^7 cells/well. In order to stabilize the cells, the cells were cultured for 16 hours or more in an incubator at 37° C. and 5% CO2. […]
On the technique in general: In western blotting, separated proteins are transferred to a membrane and probed.

Data set [2] has as its system HL60 cells. As to the kind of experiment: Apoptosis or cell necrosis in HL60 cells, FACS (Annexin-V/PI) and western blot. The format is cell-based, human. The following applies: 0-2 μM, 24 hours, FIG. 3. As for the experimental part: as §1, §2, §3
Data set [3] relates to K562 cells. As to the kind of experiment: Cell viability in chronic leukemia K562 cells, WST assay. The format is cell-based, human. The following applies: 0.1 to 5 μM. As to the method: K562 cells obtained from a person with chronic myeloid leukemia were cultured in an incubator under conditions of 37° C. and 5% CO2 using RPMI medium containing 10% FBS (fetal bovine serum), and subcultured once every two days and used in the experiment.
The K562 cells cultured in Example 4-1 were inoculated into a 96-well plate at 1×10^5 cells/well, and then, for the stabilization of cells, the cells were cultured in an incubator at 37° C. and 5% CO2 for 16 hours or more. Subsequently, among the compounds synthesized in Example 1, the compounds 1, 10, and 72 and 192 were treated at a concentration of 0.1 to 5 μM and then cultured for 4 hours. At this time, DMSO was used as a control group. After 4 hours of incubation, 10 μl of WST solution was added to each cell and then reacted for 2 hours.

Data set [4] concerns A549 (lung carcinoma). In words: Cell viability in solid cancer cells, WST assay, A549. The following applies: Homo sapiens, A549, 1 to 30 μM, 6 hours. Format: cell-based, human. The text has this:
(§4) To confirm the possibility of use as a therapeutic agent for solid cancer, A549 cell line obtained from a […] with lung carcinoma, Hela cell line obtained from a person with cervix adenocarcinoma, HepG2 cell line obtained from a child with hepatocellular carcinoma, MCF7 cell line obtained from a person with breast adenocarcinoma, and Beas-2B cell line obtained from a normal lung for comparison with solid cancer cell line were used.
(§5) The A549 (lung carcinoma), Hela (cervix adenocarcinoma), HepG2 (hepatocellular carcinoma), MCF7 (breast carcinoma), and Beas-2B (normal lung) cell lines were used in DMEM medium containing 10% FBS, subcultured once every 2 days in an incubator under conditions of 37° C. and 5% CO2 and used in the experiment.
(§6) A549 (lung carcinoma), Hela (cervix adenocarcinoma), HepG2 (hepatocellular carcinoma), MCF7 (breast carcinoma), and Beas-2B (normal lung) cells cultured in Example 6-1 were inoculated into a 96-well plated at 1×10^4 cells/well, and then for the stabilization of cells, the cells were cultured in an incubator at 37° C. and 5% CO2 for 16 hours or more. Subsequently, among the compounds synthesized in Example 1, the compounds 1, 10 and 72 were treated at a concentration of 1 to 30 μM, and then cultured for 6 hours. At this time, DMSO and β-lapachone were used as the control group. After 4 hours of incubation, 10 μl of WST solution was added to each cell, the reaction was carried out for 2 hours, and the absorbance was measured at 450 nm with a multi-scan machine. The cell viabilities of A549 (lung carcinoma), Hela (cervix adenocarcinoma), HepG2 (hepatocellular carcinoma) and MCF7 (breast carcinoma) cells are shown in Table 4 and FIG. 6 below.

Data set [5] concerns Hela (cervix adenocarcinoma). In words: Cell viability in solid cancer cells, WST assay, Hela. Format: cell-based, human. The following applies: Homo sapiens, 1 to 30 μM, 6 hours.
Text: as §4, §5, §6

The test system of data set [6] is HepG2 (hepatocellular carcinoma). In words: Cell viability in solid cancer cells, WST assay, HepG2. Format: cell-based, human. The following applies: Homo sapiens, HepG2, 1 to 30 μM, 6 hours.
Text: as §4, §5, §6

The subject of data set [7] is MCF7 (breast carcinoma). As to the kind of experiment: Cell viability in solid cancer cells, WST assay, MCF7. The format is cell-based, human. The following applies: Homo sapiens, MCF7, 1 to 30 μM, 6 hours.
Text: as §4, §5, §6

For data set [8], the system named is C57BL/6 mice. As to the kind of experiment: Acute toxicity experiment, mortality in mice. The format is in vivo. The following applies: 120 mg/kg orally, 24 hours after administration. As for the experimental part: This experiment was conducted to examine the acute toxicity to the animal body acutely (within 24 hours) when the compound 1 of the present invention was ingested in excess in a short period of time, and to determine the mortality rate. 20 C57BL/6 mice, which are common mice, were prepared, and ten mice were assigned to each group. Only 0.1% SLS (sodium lauryl sulfate) was administered to the control group, and the compound 1 was orally administered to the experimental group at a concentration of 120 mg/kg, respectively. As a result of examining each mortality rate 24 hours after administration, both the control group and the experimental group to which the compound 1 was administered survived.

The test system of data set [9] is A549, Hela, HepG2, MCF7 and Beas-2B cells. In words: Cell viability WST assay, all solid cancer and normal lung lines taken together. The following applies: 6 hours. The format is cell-based, human.
Text: as §4, §5, §6

Consider `CC(C)c1nc2c([nH]1)C(=O)C(=O)c1ccccc1-2` [compound 1], for which the “apoptosis or cell necrosis, KG1α cells” value in data set [1] is given as “died due to apoptosis”. The “apoptosis or cell necrosis, HL60 cells” value in data set [2] was “both apoptosis and cell necrosis occurred”. Moreover, the IC50 (commonly the concentration that inhibits the measured activity by half) was 1.6 µM in data set [3] (4 hours); 1 to 2 µM in data set [3] (Homo sapiens, K562, 4 h); 5.1 µM in [4]; 4.6 µM in [5]; 10.1 µM in data set [6]; 14.4 µM in data set [7]. Besides, in data set [8], the “mortality, acute toxicity” value is reported as “survived”. In addition, in data set [9], the “killing effect compared with β-lapachone” value is “killing effect similar to β-lapachone”.

Source of the values: US11684610B2, “Pharmaceutical composition including 1,2-naphthoquinone derivative compound for prevention or treatment of solid cancers or blood cancers” (YUNGJIN PHARM. CO., LTD., priority 2018, dated 2023).
